From US12403192B2, “Nanoemulsion compositions for preventing, suppressing or eliminating allergic and inflammatory disease” (priority 2014, dated 2025)

System: virus
Test: Virus inactivation by BCTP components
Settings: concentrations equivalent to 11% BCTP
Excerpt: Individual components of nanoemulsions (e.g. in an immunogenic composition of the present invention) can function both to inactivate a pathogen as well as to contribute to the non-toxicity of the emulsions. […] Adding the oil phase to the detergent and solvent markedly reduces the toxicity of these agents in tissue culture at the same concentrations. […] Furthermore, when all the components of BCTP are combined in one composition but are not in a nanoemulsion structure, the mixture is not as effective at inactivating a pathogen as when the components are in a nanoemulsion structure.

For TRITON-X100, which “ability to inactivate a virus” value is on record?
Its value is “less ability”.
